Source: patent publication US20240309007A1, “CRYSTALLINE FORMS OF 3-{4-[(2R)-2-AMINOPROPOXY]PHENYL}-N-[(1R)- 1-(3-FLUOROPHENYL) ETHYL]IMIDAZO[1,2-B]PYRIDAZIN-6-AMINE AND SALTS THEREOF” (ANHEART THERAPEUTICS (HANGZHOU) CO., LTD., priority 2021, published 2024)

Experiment: Long-term stability test, 25° C./60% RH, three years
Format: physicochemical
Settings: for Appearance / Assay (anhydrous and solvent free basis) / Individual unspecified impurity (Maximum) / Total impurities / Water content / deF-6051: 25° C. ± 2° C./60 ± 5% RH
Experimental: The long-term stability test of the crystalline form A of Compound 1 adipate was performed by storing a sample at 25°±2° C./[…] for three years.

## C[C@@H](N)COc1ccc(-c2cnc3ccc(N[C@H](C)c4cccc(F)c4)nn23)cc1 [crystalline form A of Compound 1 adipate, 3-{4-[(2R)-2-aminopropoxy]phenyl}-N-[(1R)-1-(3-fluorophenyl)ethyl]imidazo[1,2-b]pyridazin-6-amine]
  stability (in words): superior stability
0 M
  Appearance: White
  Assay (anhydrous and solvent free basis): 100.0%
  Individual unspecified impurity (Maximum): 0.09%
  Total impurities: 0.61%
  Water content: 0.07%
  deF-6051: 0.46%
3 M
  Appearance: White
  Assay (anhydrous and solvent free basis): 100.0%
  Individual unspecified impurity (Maximum): 0.09%
  Total impurities: 0.61%
  Water content: 0.08%
  deF-6051: 0.46%
6 M
  Appearance: White
  Assay (anhydrous and solvent free basis): 100.0%
  Individual unspecified impurity (Maximum): 0.09%
  Total impurities: 0.54%
  Water content: 0.11%
  deF-6051: 0.45%
9 M
  Appearance: White
  Assay (anhydrous and solvent free basis): 99.9%
  Individual unspecified impurity (Maximum): 0.09%
  Total impurities: 0.60%
  Water content: 0.08%
  deF-6051: 0.46%
12 M
  Appearance: White
  Assay (anhydrous and solvent free basis): 100.2%
  Individual unspecified impurity (Maximum): 0.09%
  Total impurities: 0.55%
  Water content: 0.09%
  deF-6051: 0.46%
18 M
  Appearance: White
  Assay (anhydrous and solvent free basis): 100.2%
  Individual unspecified impurity (Maximum): 0.09%
  Total impurities: 0.55%
  Water content: 0.06%
  deF-6051: 0.46%
24 M
  Appearance: White
  Assay (anhydrous and solvent free basis): 99.7%
  Individual unspecified impurity (Maximum): 0.09%
  Total impurities: 0.54%
  Water content: 0.07%
  deF-6051: 0.45%
36 M
  Appearance: White
  Assay (anhydrous and solvent free basis): 100.0%
  Individual unspecified impurity (Maximum): 0.09%
  Total impurities: 0.53%
  Water content: 0.06%
  deF-6051: 0.44%
Room temperature, sealed container
  time stable at room temperature in a sealed container: at least 36 months
